Test results taken from patent US10689381B2 (priority 2017, dated 2020).
Read-outs that look alike come from different tables or passages of the source.

Legend:
L1210 [1] = assay: cells; type: cell-based, mouse
Procedure, shortened: (§1)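 Cells seeded at 30,000 cells/mL in DMEM with 10% FBS, then exposed for 72 h to compound at six concentrations spanning 0–1000 nM or 0–10000 nM, in duplicate. Final incubation at 37 °C lasted 5 min for L1210 and 15 min for HCT116.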

HCT116 [2] = assay: cells; type: cell-based, human; conditions: for potency relative to vinblastine (less potent / reduced activity) / potency relative to vinblastine (more potent): vinblastine-sensitive cell lines
Procedure, shortened: as §1

HCT116/VM46 = assay: cells; type: cell-based, human; conditions: for differential in activity between sensitive and resistant HCT116 cell lines: HCT116/VM46 vs HCT116
Protocol: Compounds were tested for their cell growth inhibition of L1210 (ATCC no. CCL-219, mouse lymphocytic leukemia), HCT116 (ATCC no. CCL-247, human colorectal carcinoma), and HCT116/VM46 (a vinblastine-resistant strain of HCT116) cells in culture. A population of cells (>1×10^6 cells/mL as determined with a hemocytometer) was diluted with Dulbecco's Modified Eagle Medium (DMEM, Gibco) containing 10% fetal bovine serum (FBS, Gibco) to give a final concentration of 30,000 cells/mL. To each well of a 96-well plate (Corning® Costar®) was added 100 μL of the cell media solution with a multichannel pipet. The cultures were incubated at 37° C. in an atmosphere of 5% CO2 and 95% humidified air for 24 hours.
The test compounds were then added to the plate as follows: test compounds were diluted in DMSO to a concentration of 1 mM. 10-Fold serial dilutions in DMSO were next performed on a separate 96-well plate. Fresh culture media (100 μL) was added to each well of cells resulting in 200 μL of medium per well followed by 2 μL of each test agent. Compounds were tested in duplicate (n=2-8 times) at six concentrations between 0-1000 nM or 0-10000 nM. Following the addition of compound, cultures were incubated for an additional 72 hours.
The plates were incubated at 37° C. for 5 minutes (L1210) or 15 min (HCT116 and HCT116/VM46). After the given incubation time, 50 μL of 0.1 N NaOH was added to each well and the absorption at 405 nm was determined using a 96 well plate reader. […]

A549-T24 = assay: cells; type: cell-based, human
Text: (§2) 2001, 98:11737; Kavallaris et al., Brit. J. Cancer. 1999, 80:1020; and Kavallaris et al., J. Clin. Invest. 1997, 100:1282]. As a result, the comparison of cell growth inhibition of candidate drugs against A549 vs A549-T24 has been used to characterize potential resistance due to increased expression of class III β-tubulin [Goncalves et al., Proc. Natl. Acad. Sci. USA. 2001, 98:11737; Kavallaris et al., Brit. J. Cancer. 1999, 80:1020; and Kavallaris et al., J. Clin. Invest. 1997, 100:1282].

A549 = assay: cells; type: cell-based, human
Text: as §2

L1210 [3] = conditions: Table 1, footnote b: Reported in ref. 41; cited from earlier work
HCT116 [4] = conditions: cited from earlier work; for IC50: Table 1, footnote b: Reported in ref. 41
Tubulin = conditions: for percent (%) displacement of tubulin-bound BODIPY-vinblastine: FIG. 2, competitive ligand 18 μM; for % displacement: Table 9, displacement of tubulin bound BODIPY-vinblastine
Protocol: Control studies were performed with BODIPY-VBL in the absence of a competitive ligand (control 1, maximum FI enhancement) and in the absence of tubulin (control 2, no FI enhancement). Percent (%) BODIPY-VBL displacement was calculated by the formula: (control 1 FI−experiment FI)/(Control 1 FI−Control 2 FI)×100%. Reported values are the average of 5 measurements±SD.

cells = type: cell-based, human; conditions: range over L1210 and HCT116, stated in text; read-out: IC50 against vinblastine-sensitive cell lines
Procedure, shortened: as §1

[5] = Table 9, read-out: IC50 (nM, HCT116)
[6] = Table 10, read-out: IC50 (nM), HCT116
[7] = Table 10, read-out: IC50 (nM), HCT116/VM46
[8] = Homo sapiens, HCT-116, table b183, read-out: IC50 HCT116
[9] = Homo sapiens, A549, read-out: IC50 A549
[10] = table b183, value in parentheses

CCC1(NC=O)CC2CN(CCc3c([nH]c4ccccc34)C(C(=O)OC)(c3cc4c(cc3OC)N(C)C3C(O)(C(=O)OC)C(OC(C)=O)C5(CC)C=CCN6CCC43C65)C2)C1 (stereo not drawn) [Compound 9]
IC50 (L1210 [1]): 0.5 nM
activity relative to free amine Compound 6 (more active) (HCT116 [2]): 10 fold
IC50 (HCT116 [2]; read-out: IC50 HCT116): 0.6 nM
potency relative to vinblastine (less potent / reduced activity) (HCT116 [2]): approximately 10 fold
differential in activity between sensitive and resistant HCT116 cell lines (HCT116/VM46): ~80 fold
IC50 (HCT116/VM46; read-out: IC50 HCT116/VM46): 7.5 nM
IC50 (A549-T24): 0.7 nM
IC50 (A549; read-out: IC50 A549): 0.7 nM
IC50 (L1210 [3]): 65 nM
IC50 (HCT116 [4]): 85 nM

CC[C@]1(NC(C)=O)C[C@H]2CN(CCc3c([nH]c4ccccc34)[C@@](C(=O)OC)(c3cc4c(cc3OC)N(C)[C@H]3[C@@](O)(C(=O)OC)[C@H](OC(C)=O)[C@]5(CC)C=CCN6CC[C@]43[C@@H]65)C2)C1 [Compound 10, 20′-Acetamidovinblastine]
activity relative to free amine Compound 6 (more active) (HCT116 [2]): 10 fold
potency relative to vinblastine (less potent / reduced activity) (HCT116 [2]): approximately 10 fold
differential in activity between sensitive and resistant HCT116 cell lines (HCT116/VM46): ~80 fold
IC50 (L1210 [3]): 65 nM
IC50 (HCT116 [4]): 90 nM

CC[C@]1(NC(=O)C(F)(F)F)C[C@H]2CN(CCc3c([nH]c4ccccc34)[C@@](C(=O)OC)(c3cc4c(cc3OC)N(C)[C@H]3[C@@](O)(C(=O)OC)[C@H](OC(C)=O)[C@]5(CC)C=CCN6CC[C@]43[C@@H]65)C2)C1 [Compound 11]
IC50 (L1210 [3]): 660 nM
IC50 (HCT116 [4]): 690 nM

CCC1(NC(=O)c2ccccc2)CC2CN(CCc3c([nH]c4ccccc34)C(C(=O)OC)(c3cc4c(cc3OC)N(C)C3C(O)(C(=O)OC)C(OC(C)=O)C5(CC)C=CCN6CCC43C65)C2)C1 (stereo not drawn) [Compound 24]
IC50 (L1210 [1]; Table 2): 1.1 nM
potency relative to saturated cyclohexyl counterpart Compound 20 (more potent) (HCT116 [2]): > 50 fold
IC50 (HCT116 [2]; Table 2, read-out: IC50 HCT116): 0.8 nM
potency relative to vinblastine (more potent) (HCT116 [2]): > 5 fold
percent (%) displacement of tubulin-bound BODIPY-vinblastine (Tubulin): 72±4%

CC[C@]1(NC(=O)c2ccc(C)c(C)c2)C[C@H]2CN(CCc3c([nH]c4ccccc34)[C@@](C(=O)OC)(c3cc4c(cc3OC)N(C)[C@H]3[C@@](O)(C(=O)OC)[C@H](OC(C)=O)[C@]5(CC)C=CCN6CC[C@]43[C@@H]65)C2)C1 [Compound 28]
IC50 (L1210 [1]): 3 nM
IC50 (L1210 [1]; Table 2): 3 nM
IC50 (HCT116 [2]; Table 2, read-out: IC50 HCT116): 4.5 nM
IC50 (HCT116 [2]; [5]): 4.5 nM
IC50 (HCT116 [2]; [6]): 4.5 nM
IC50 (HCT116 [2]; read-out: IC50 HCT116): 4.5 nM
IC50 (HCT116/VM46; Table 2, read-out: IC50 HCT116/VM46): 7.6 nM
IC50 (HCT116/VM46; [7]): 7.6 nM
IC50 (HCT116/VM46; read-out: IC50 HCT116/VM46): 7.6 nM
IC50 (A549-T24): 2.5 nM
IC50 (A549; read-out: IC50 A549): 5 nM
% displacement (Tubulin): 67 ± 8%

CC[C@]1(NC(=O)c2ccc(C#N)cc2)C[C@H]2CN(CCc3c([nH]c4ccccc34)[C@@](C(=O)OC)(c3cc4c(cc3OC)N(C)[C@H]3[C@@](O)(C(=O)OC)[C@H](OC(C)=O)[C@]5(CC)C=CCN6CC[C@]43[C@@H]65)C2)C1 [Compound 54]
IC50 (L1210 [1]; Table 2): 4.4 nM
IC50 (HCT116 [2]; Table 2, read-out: IC50 HCT116): 3.1 nM
percent (%) displacement of tubulin-bound BODIPY-vinblastine (Tubulin): 56±5%

CC[C@]1(NC(=O)c2ccc(N(C)C)cc2)C[C@H]2CN(CCc3c([nH]c4ccccc34)[C@@](C(=O)OC)(c3cc4c(cc3OC)N(C)[C@H]3[C@@](O)(C(=O)OC)[C@H](OC(C)=O)[C@]5(CC)C=CCN6CC[C@]43[C@@H]65)C2)C1 [Compound 64]
IC50 (L1210 [1]; Table 2): 0.18 nM
IC50 (HCT116 [2]; Table 2, read-out: IC50 HCT116): 0.18 nM
percent (%) displacement of tubulin-bound BODIPY-vinblastine (Tubulin): 88±5%

CCC1(NC(=O)c2ccc3c(c2)CCCC3)CC2CN(CCc3c([nH]c4ccccc34)C(C(=O)OC)(c3cc4c(cc3OC)N(C)C3C(O)(C(=O)OC)C(OC(C)=O)C5(CC)C=CCN6CCC43C65)C2)C1 (stereo not drawn) [Compound 121]
IC50 (L1210 [1]): 3 nM
IC50 (L1210 [1]; Table 4): 3.3 nM
IC50 (HCT116 [2]; Table 4, read-out: IC50 HCT116): 4.9 nM
IC50 (HCT116 [2]; [5]): 4.9 nM
IC50 (HCT116 [2]; [6]): 4.9 nM
IC50 (HCT116 [2]; read-out: IC50 HCT116): 4.9 nM
potency relative to vinblastine (more potent) (HCT116 [2]): about 2 fold
IC50 (A549-T24): 6.5 nM
IC50 (A549; read-out: IC50 A549): 7.6 nM
% displacement (Tubulin): 63 ± 5%
relative tubulin binding affinity vs vinblastine (Tubulin; in words, b167): essentially indistinguishable from or perhaps slightly better than that of vinblastine

CCC1(NC(=O)c2ccc3c(c2)CCCO3)CC2CN(CCc3c([nH]c4ccccc34)C(C(=O)OC)(c3cc4c(cc3OC)N(C)C3C(O)(C(=O)OC)C(OC(C)=O)C5(CC)C=CCN6CCC43C65)C2)C1 (stereo not drawn) [Compound 173]
IC50 (L1210 [1]): 0.4 nM
IC50 (L1210 [1]; Table 6): 0.4 nM
IC50 (cells): 0.4 to 0.5 nM
IC50 (HCT116 [2]; Table 6, read-out: IC50 HCT116): 0.5 nM
IC50 (HCT116 [2]; [5]): 0.5 nM
IC50 (HCT116 [2]; [6]): 0.5 nM
IC50 (HCT116 [2]; read-out: IC50 HCT116): 0.5 nM
differential in activity between sensitive and resistant HCT116 cell lines (HCT116/VM46): 3.8 fold
IC50 (HCT116/VM46; Table 6, read-out: IC50 HCT116/VM46): 1.8 nM
IC50 (HCT116/VM46; [7]): 1.8 nM
IC50 (HCT116/VM46; read-out: IC50 HCT116/VM46): 1.8 nM
IC50 (HCT116/VM46; read-out: IC50 against resistant HCT116 cell line): 1.8 nM
IC50 (A549-T24): 0.8 nM
IC50 (A549; read-out: IC50 A549): 1.4 nM
% displacement (Tubulin): 98 ± 7%

CCC1(O)C[C@H]2CN(CCc3c([nH]c4ccc(F)cc34)[C@@](C(=O)OC)(c3cc4c(cc3OC)N(C)C3C(O)(C(=O)OC)[C@H](OC(C)=O)[C@]5(CC)C=CCN6CC[C@]43[C@@H]65)C2)C1 (stereo partly drawn) [Compound 187, 10′-fluorovinblastine, reference compound]
IC50 (L1210 [1]; Mus musculus, L1210, Table 8, 10′-F compounds): 0.6 nM
IC50 (L1210 [1]; Mus musculus, L1210, table b183): 0.7 nM
IC50 (HCT116 [2]; Homo sapiens, HCT-116, Table 8, 10′-F compounds, read-out: IC50 HCT116): 0.7 nM
IC50 (HCT116 [2]; [8]): 0.8 nM
IC50 (A549-T24; Homo sapiens): < 8 nM
IC50 (A549; [9]): 2.9 nM
improvement in activity over vinblastine (HCT116 [4]; recent work, Gotoh et al. 2011): ~10 fold

CC[C@]1(NC(=O)c2ccc(OC)c(OC)c2)C[C@H]2CN(CCc3c([nH]c4ccc(F)cc34)[C@@](C(=O)OC)(c3cc4c(cc3OC)N(C)[C@H]3[C@@](O)(C(=O)OC)[C@H](OC(C)=O)[C@]5(CC)C=CCN6CC[C@]43[C@@H]65)C2)C1 [Compound 190]
IC50 (L1210 [1]; Table 8, 10′-F compounds): 0.06 nM
IC50 (cells): 0.06 to 0.08 nM
IC50 (HCT116 [2]; Table 8, 10′-F compounds, read-out: IC50 HCT116): 0.08 nM

CC(=O)O[C@H]1C(=O)[C@@]2(C)[C@H]([C@H](OC(=O)c3ccccc3)[C@]3(O)C[C@H](OC(=O)[C@H](O)[C@@H](NC(=O)c4ccccc4)c4ccccc4)C(C)=C1C3(C)C)[C@]1(OC(C)=O)CO[C@@H]1C[C@@H]2O [Taxol, reference compound]
IC50 (HCT116 [2]; [8]): 4.1 nM
IC50 (HCT116/VM46; Homo sapiens, HCT-116/VM46, table b183, read-out: IC50 HCT116/VM46): > 200 nM
Measured fold resistant vs wt HCT116 (HCT116/VM46; [10]): > 50
loss in potency A549-T24 relative to wild type A549 (A549-T24): 10 fold
IC50 (A549-T24; Homo sapiens): 70 nM
Measured fold resistant vs wt A549 (A549-T24; [10]): 10
IC50 (A549; [9]): 7.1 nM
IC50 (A549; Homo sapiens, A549, read-out: IC50 wild type A549): 7.1 nM
